Measurements as given in patent publication EP0908457B1, “3-(1,2-benzisothiazol- and isoxazol-5-Y1)-2,4(1H,3H)-pyrimidinedione or thione and 3-(1,2-benzisothiazol- and isoxazol-5-y1)-4(3H)-pyrimidinone or thione herbicidal agents” (BASF AKTIENGESELLSCHAFT, priority 1997, dated 1999).

Experiments:
[1] = system: Echinochloa oryzoides (Ard.) Fritsch.; test: Preemergence weed control under flooded paddy conditions, ECHORC (Watergrass (Calif.)); assay type: in vivo; details: flooded paddy; on herbicidal effect rating, ECHORC: meaning of each grade not given here
Cyperus iria = test: Preemergence weed control under flooded paddy conditions, CYPIR (Rice Flatsedge); assay type: in vivo; details: flooded paddy; on herbicidal effect rating, CYPIR: meaning of each grade not given here
[2] = system: Cyperus serotinus, Rottb.; test: Preemergence weed control under flooded paddy conditions, CYPSE (Flatsedge); assay type: in vivo; on herbicidal effect rating, CYPSE: meaning of each grade not given here
[3] = system: Monochoria vaginalis, Presl.; test: Preemergence weed control under flooded paddy conditions, MOOVA (Monochoria); assay type: in vivo; details: flooded paddy; on herbicidal effect rating, MOOVA: meaning of each grade not given here
Sagittaria pygmaea, L. = test: Preemergence weed control under flooded paddy conditions, SAGPY (Arrowhead (Pygmaea)); assay type: in vivo; details: flooded paddy; on herbicidal effect rating, SAGPY: meaning of each grade not given here
[4] = system: Oryza sativa, (L.) Tebonnet; details: in vivo; on herbicidal effect rating ORYSAT: meaning of each grade not given here
[5] = Rate 0.0320 kg/ha, preemergence, rated three to four weeks after treatment
[6] = Rate 0.0620 kg/ha, preemergence, rated three to four weeks after treatment
[7] = Rate 0.1250 kg/ha, preemergence, rated three to four weeks after treatment
[8] = Rate 0.2500 kg/ha, preemergence, rated three to four weeks after treatment
[9] = 0.0313 kg/ha, preemergence, rated three to four weeks after treatment
[10] = 0.0625 kg/ha, preemergence, rated three to four weeks after treatment
[11] = 0.1250 kg/ha, preemergence, rated three to four weeks after treatment
[12] = 0.2500 kg/ha, preemergence, rated three to four weeks after treatment
[13] = Rate 0.2500 kg/ha, preemergence weeds, rated three to four weeks after treatment
[14] = Rate 0.0320 kg/ha, preemergence, rated 3-4 weeks after treatment
[15] = Rate 0.0620 kg/ha, preemergence, rated 3-4 weeks after treatment
[16] = Rate 0.1250 kg/ha, preemergence, rated 3-4 weeks after treatment
[17] = Rate 0.2500 kg/ha, preemergence, rated 3-4 weeks after treatment
[18] = Rate 0.5000 kg/ha, preemergence, rated 3-4 weeks after treatment

Which results are given for `Cn1c(C(F)(F)F)cc(=O)n(-c2ccc3snc(CC=NO)c3c2)c1=O` [Example 266, 1,2-Benzisothiazole-3-acetaldehyde, 5-[3,6-dihydro-3-methyl-2,6-dioxo-4-(trifluoromethyl)-1(2H)-pyrimidinyl]-, 3-oxime, (E)- and (Z)-]?
ECHORC herbicidal effect rating [1, 5]: 0.0; ECHORC herbicidal effect rating [1, 6]: 0.0; ECHORC herbicidal effect rating [1, 7]: 0.0; ECHORC herbicidal effect rating [1, 8]: 0.0; CYPIR herbicidal effect rating (Cyperus iria; [5]): 5.0; CYPIR herbicidal effect rating (Cyperus iria; [6]): 5.0; CYPIR herbicidal effect rating (Cyperus iria; [7]): 5.0; CYPIR herbicidal effect rating (Cyperus iria; [8]): 9.0; CYPSE herbicidal effect rating [2, 5]: 0.0; CYPSE herbicidal effect rating [2, 6]: 0.0; CYPSE herbicidal effect rating [2, 7]: 0.0; CYPSE herbicidal effect rating [2, 8]: 3.0; MOOVA herbicidal effect rating [3, 5]: 9.0; MOOVA herbicidal effect rating [3, 6]: 9.0; MOOVA herbicidal effect rating [3, 7]: 9.0; MOOVA herbicidal effect rating [3, 8]: 9.0; SAGPY herbicidal effect rating (Sagittaria pygmaea, L.; [5]): 0.0; SAGPY herbicidal effect rating (Sagittaria pygmaea, L.; [6]): 0.0; SAGPY herbicidal effect rating (Sagittaria pygmaea, L.; [7]): 0.0; SAGPY herbicidal effect rating (Sagittaria pygmaea, L.; [8]): 0.0; ORYSAT herbicidal effect rating [4]: 0.0

“1-Methyl-3-(2-methyl-3-oxo-1,2-benzisoxazolin-5-yl)-6-(trifluoromethyl)-2,4(1H,3H)-pyrimidinedione [Example 44]” was tested. Which “herbicidal effect rating, ECHORC” value [1, 9] did it give?
Its value is 0.0.

And the “herbicidal effect rating, ECHORC” value [1, 10]?
The value was 0.0.

What about the “herbicidal effect rating, ECHORC” value [1, 11] of the same compound?
The value was 0.0.

What about the “herbicidal effect rating, ECHORC” value [1, 12] of the same compound?
Its value is 0.0.

What about the “herbicidal effect rating, CYPIR” value (Cyperus iria; [9]) of the same compound?
Its value is 0.0.

What about the “herbicidal effect rating, CYPIR” value (Cyperus iria; [10]) of the same compound?
Its value is 0.0.

What about the “herbicidal effect rating, CYPIR” value (Cyperus iria; [11]) of the same compound?
The value was 0.0.

And the “herbicidal effect rating, CYPIR” value (Cyperus iria; [12])?
The value was 0.0.

What about the “herbicidal effect rating, CYPSE” value [2, 9] of the same compound?
Its value is 0.0.

What about the “herbicidal effect rating, CYPSE” value [2, 10] of the same compound?
The value was 0.0.

And the “herbicidal effect rating, CYPSE” value [2, 11]?
The value was 0.0.

And the “herbicidal effect rating, CYPSE” value [2, 12]?
The value was 0.0.

What about the “herbicidal effect rating, MOOVA” value [3, 9] of the same compound?
The value was 0.0.

What about the “herbicidal effect rating, MOOVA” value [3, 10] of the same compound?
The value was 0.0.

What about the “herbicidal effect rating, MOOVA” value [3, 11] of the same compound?
The value was 0.0.

What about the “herbicidal effect rating, MOOVA” value [3, 12] of the same compound?
Its value is 0.0.

And the “herbicidal effect rating, SAGPY” value (Sagittaria pygmaea, L.; [9])?
Its value is 0.0.

And the “herbicidal effect rating, SAGPY” value (Sagittaria pygmaea, L.; [10])?
Its value is 0.0.

And the “herbicidal effect rating, SAGPY” value (Sagittaria pygmaea, L.; [11])?
Its value is 0.0.

And the “herbicidal effect rating, SAGPY” value (Sagittaria pygmaea, L.; [12])?
Its value is 0.0.

And the “herbicidal effect rating, ORYSAT (rice tolerance)” value [4]?
The value was 0.0.

How did the “herbicidal effect rating, ECHORC” value [1, 13] turn out when `Cn1c(C(F)(F)F)cc(=O)n(-c2ccc3snc(CNS(C)(=O)=O)c3c2)c1=O` [Example 305] was run?
Its value is 0.0.

And the “herbicidal effect rating, CYPIR” value (Cyperus iria; [13])?
The value was 0.0.

And the “herbicidal effect rating, CYPSE” value [2, 13]?
Its value is 0.0.

What about the “herbicidal effect rating, MOOVA” value [3, 13] of the same compound?
The value was 0.0.

What about the “herbicidal effect rating, SAGPY” value (Sagittaria pygmaea, L.; [13]) of the same compound?
Its value is 0.0.

What about the “herbicidal effect rating ORYSAT” value [4] of the same compound?
The value was 0.0.

Which “herbicidal effect rating, ECHORC” value [1, 14] does the source give for `Cc1ccc(OCC(=O)c2ccccc2)c(-c2nsc3ccc(-n4c(=O)cc(C(F)(F)F)n(C)c4=O)cc23)c1` [Example 537, 2,4(1H,3H)-Pyrimidinedione, 1-methyl-3-{3-[6-(phenacyloxy)-m-tolyl]-1,2-benzisothiazol-5-yl}-6-(trifluoromethyl)-] here?
Its value is 3.4.

And the “herbicidal effect rating, ECHORC” value [1, 15]?
The value was 4.4.

What about the “herbicidal effect rating, ECHORC” value [1, 16] of the same compound?
The value was 5.0.

And the “herbicidal effect rating, ECHORC” value [1, 17]?
The value was 9.0.

And the “herbicidal effect rating, ECHORC” value [1, 18]?
Its value is 9.0.

What about the “herbicidal effect rating, CYPIR” value (Cyperus iria; [14]) of the same compound?
Its value is 0.0.

And the “herbicidal effect rating, CYPIR” value (Cyperus iria; [15])?
The value was 0.0.

What about the “herbicidal effect rating, CYPIR” value (Cyperus iria; [16]) of the same compound?
Its value is 1.0.

And the “herbicidal effect rating, CYPIR” value (Cyperus iria; [17])?
Its value is 4.0.

And the “herbicidal effect rating, CYPIR” value (Cyperus iria; [18])?
The value was 9.0.

What about the “herbicidal effect rating, CYPSE” value [2, 14] of the same compound?
Its value is 0.0.

And the “herbicidal effect rating, CYPSE” value [2, 15]?
The value was 0.0.

And the “herbicidal effect rating, CYPSE” value [2, 16]?
Its value is 0.0.

What about the “herbicidal effect rating, CYPSE” value [2, 17] of the same compound?
Its value is 0.0.

And the “herbicidal effect rating, CYPSE” value [2, 18]?
Its value is 0.0.

And the “herbicidal effect rating, MOOVA” value [3, 14]?
Its value is 9.0.

What about the “herbicidal effect rating, MOOVA” value [3, 15] of the same compound?
Its value is 9.0.

What about the “herbicidal effect rating, MOOVA” value [3, 16] of the same compound?
The value was 9.0.

And the “herbicidal effect rating, MOOVA” value [3, 17]?
The value was 9.0.

And the “herbicidal effect rating, MOOVA” value [3, 18]?
The value was 9.0.

And the “herbicidal effect rating, SAGPY” value (Sagittaria pygmaea, L.; [14])?
The value was 0.0.

And the “herbicidal effect rating, SAGPY” value (Sagittaria pygmaea, L.; [15])?
Its value is 0.0.

What about the “herbicidal effect rating, SAGPY” value (Sagittaria pygmaea, L.; [16]) of the same compound?
The value was 0.0.

What about the “herbicidal effect rating, SAGPY” value (Sagittaria pygmaea, L.; [17]) of the same compound?
The value was 0.0.

What about the “herbicidal effect rating, SAGPY” value (Sagittaria pygmaea, L.; [18]) of the same compound?
The value was 0.0.

And the “herbicidal effect rating ORYSAT” value [4]?
The value was 0.0.
